Where a SMILES comes first, the peptide text is derived from it. Where no end group is shown, it is not given here. [ ]: non-standard residue; d: D form. Nle = CCCC[C@H](N)C(=O)O
Tests used:
clonal B cell line INS-1 = assay: Increase of cytosolic calcium concentration in INS-1 cells (Fura-2); type: cell-based; conditions: peptide 10^−8 M, 10 mM glucose
Protocol: Measurement of the Increase of the Cytosolic Calcium Concentration in B Cells of the Endocrine Pancreas (Clonal B Cell Line INS-1)
INS-1 cells are cultured in RPMI 1640 medium containing 10% FCS, 10 mM HEPES buffer (pH 7.4), 2 mM L-glutamine, 100 i.U. penicillin/ml, 100 μg streptomycine/ml, 1 mM pyruvate (sodium salt) and 50 μM 2-mercaptoethanol at 37° C. in an atmosphere of 95% air and 5% CO2. After 6 to 8 days growth on plastic cell culture plates, the subconfluent cells, after rinsing once with PBS (phosphate-buffered saline), are detached from the base by incubating for four minutes at 37° C. with 0.025% trypsin and 0.27 mM EDTA in isoosmotic saline solution
The detached cells are resuspended in Spinner medium (culture medium as above, but containing 5% FCS and 25 mM HEPES) and incubated for two and a half hours in a Spinner bottle with a stirrer bar. Afterwards the medium is removed by centrifugation and the cells are resuspended in Spinner medium. They are then incubated for 30 minutes at 37° C. with 2 μM Fura-2/acetoxymethyl ester under the same conditions as before. The Fura loading of the cells is terminated by washing the cells once Spinner medium (room temperature). Afterwards the cells are resuspended in spinner medium at room temperature (2×10^7 cells/ml). The cells are then removed from this suspension for calcium measurements.
The measurements are carried out at 37° C. in a modified Krebs-Ringer buffer (KRBH) containing 136 mM NaCl, 4.8 mM KCl, 2 mM CaCl2, 1.2 MM MgSO4, 1.2 mM KH2PO4, 5 mM NaNCO3, 10 mM glucose, 250 μM sulfinpyrazone (to inhibit the Fura-2 efflux into the medium) and 25 mM HEPES buffer (adjusted to pH 7.4 with NaOH). The cell concentration is 1-2×10^6/ml. The measurements are carried out in a cuvette stirred with a stirring bar in a spectrofluorimeter at 37° C. with 1.5 ml cell suspension. The excitation wavelength is 340 nm, the emission wavelength is 505 nm. At the end of the measurement 50 μM MnCl2 is added which is followed by 100 μm DTPA (diethylenetriamine pentaacetate) in order to determine the proportion of extracellular fluorescence indicator relative to the measured fluorescence by temporarily quenching the fluorescence of extracellular Fura. After the addition of DTPA the entire Fura is firstly converted into a calcium-saturated and then into a calcium-free state to determine the calibration values Fmax (calcium-saturated) and Fmin (calcium-free) for the respective measurement. For this purpose the cells are lysed by adding 0.1% Triton X-100. The dye is saturated with calcium by contact with the high extracellular calcium concentration. […]
The cytosolic calcium ion concentration is calculated according to the algorithm introduced by R. Tsien and colleagues (Grynkiewicz, G., 1985): […]

[1] = target: dipeptidyl peptidase IV (DDP-IV) (Homo sapiens, UniProt P27487)
Protocol: Renal brush border microvilli membranes (BBM) are therefore a suitable source for the relevant ectopeptidases and can be used as an in vitro test for the metabolic stability of synthetic peptides. Alternatively it is possible to use ectopeptidase preparations.
(§1) Microvilli membranes (0.5-1 μg protein) or the respective ectopeptidase preparation (60-300 ng) were incubated with 10 μg peptide (about 3 nmol) in 100 μl HEPES buffer (50 mM, pH 7.4) which contained 50 mM NaCl. The reactions were terminated at predetermined times (duration up to 1 hour) by boiling. Subsequently the samples were centrifuged (10,000×g), diluted with 150 μl 0.1% TFA and analysed by means of reversed phase (RP) HPLC. Each sample was determined in duplicate.
A system with the following components was used for HPLC analysis: A 2248 low pressure pump (Pharmacia-LKB, Freiburg), a WISP 10B autoinjector (Millipore-Waters, Eschborn), a UV detector SP-4 (Gynkotec, Berlin), a low pressure mixing system (Pharmacia-LKB, Freiburg) and a program manager software control (Pharmacia-LKB, Freiburg). […] After injection of 244 μl of the sample solution onto a column equilibrated with the motile solvent A, the incubation products were eluted with a linear gradient of 0% to 80% B in 80 min and detected at 215 nm UV absorption. […]

[2] = system: brush border microvilli membranes (BBM); conditions: pH 7.4
Protocol: Renal brush border microvilli membranes (BBM) are therefore a suitable source for the relevant ectopeptidases and can be used as an in vitro test for the metabolic stability of synthetic peptides.
Microvilli membranes of the rat and pig kidney cortex are isolated by means of subcellular fractionation using the differential centrifugation method (Booth and Kenny (1975)). 4 Brush border ectopeptidases are examined fluorimetrically and other marker enzymes are measured colorimetrically in order to assess the degree of purity and the yield of membranes.
as §1
A system with the following components was used for HPLC analysis: A 2248 low pressure pump (Pharmacia-LKB, Freiburg), a WISP 10B autoinjector (Millipore-Waters, Eschborn), a UV detector SP-4 (Gynkotec, Berlin), a low pressure mixing system (Pharmacia-LKB, Freiburg) and a program manager software control (Pharmacia-LKB, Freiburg). […]

isolated islet cells = assay: Insulin release from isolated islets; type: cell-based, mice
Protocol: The abdomen of anaesthetised (0.3-0.5 ml nembutal/isotonic saline solution 1:4 i.p.) mice is opened by a median incision and two side incisions, the peritoneum is immobilized and cut open at the costal arch along the diaphragm. All organs are inflated and stained red by injection of a neutral red solution into the left ventricle. The pancreas is carefully removed along the stomach and duodenum up to the mesenteries. Until digestion the pancreas is placed in an ice-cooled petri dish in Hank's balanced salt solution (HBBS) and a few drops of neutral red.
Two pancreases are dabbed with cellulose, placed in a tube, 5 ml freshly prepared collagenase solution (collagenase (Cl. histolyticum) 0.74 U/mg, Serva, 2 mg/ml in HBBS/water 1:9, pH 7.4) is added and they are incubated for 18 minutes at 37° C. while shaking. Subsequently a centrifugation is carried out at 1000 rpm for 1 minute. The supernatant is discarded, In a second digestion step 5 ml collagenase solution (1 mg/ml) is incubated for 4 minutes, shaken and undigested tissue is sedimented. The supernatant is decanted and the whole process is repeated four to five times. The supernatant is then centrifuged for 1 minute at 1000 rpm and the collagenase solution is discarded. The remaining pellet is shaken with ice-cold HBBS and sedimented for ca. 10 minutes on ice. This wash process is repeated for a further three times. The faint pink stained islets are picked out from the washed pellets under a stereoscopic magnifying glass and transferred to culture medium (100 ml RPMI 1640 (Gibco), 1 ml glutamine, 1 ml penicillin, 1 ml Cibrobay antibiotic (Bayer), 10 ml foetal calf serum, 2 ml Hepes buffer 1 M). In order to obtain the purest possible culture, the islets are picked two to three times and transferred to fresh culture medium.
The islet cells from the culture medium are distributed in Eppendorff vessels containing […] stimulation buffer (118 mM NaCl, 0.2 mM NaH^2PO^4, 0.565 mM MgCl^2, 1.25 mM CaCl^2, 4.1 mM KCl, 10 mM Hepes, 1% BSA, 3.3 mM glucose; pH 7.4) in a quantity of 10 islets per Eppendorff vessel and placed in an incubator for 1 hour at 37° C. Subsequently the peptides to be tested are added and filled up to […] with stimulation buffer and incubated for one hour at 37° C. The islets are centrifuged at 1000 rpm for 1 minute. The amount of […] is measured in the supernatant using an insulin-RIA (DPC Biermann, Nauheim). Each test substance was determined in quadruplicate.
Some exendin analogues were tested as described above on isolated islet cells for insulin secretory activity.
Insulin Release From Isolated Islets After 1 Hour [mIU/h/10 Islets] in the Presence of 10 mM Glucose: […]

dipeptidyl peptidase IV (DDP-IV), sequence (P27487 whole entry): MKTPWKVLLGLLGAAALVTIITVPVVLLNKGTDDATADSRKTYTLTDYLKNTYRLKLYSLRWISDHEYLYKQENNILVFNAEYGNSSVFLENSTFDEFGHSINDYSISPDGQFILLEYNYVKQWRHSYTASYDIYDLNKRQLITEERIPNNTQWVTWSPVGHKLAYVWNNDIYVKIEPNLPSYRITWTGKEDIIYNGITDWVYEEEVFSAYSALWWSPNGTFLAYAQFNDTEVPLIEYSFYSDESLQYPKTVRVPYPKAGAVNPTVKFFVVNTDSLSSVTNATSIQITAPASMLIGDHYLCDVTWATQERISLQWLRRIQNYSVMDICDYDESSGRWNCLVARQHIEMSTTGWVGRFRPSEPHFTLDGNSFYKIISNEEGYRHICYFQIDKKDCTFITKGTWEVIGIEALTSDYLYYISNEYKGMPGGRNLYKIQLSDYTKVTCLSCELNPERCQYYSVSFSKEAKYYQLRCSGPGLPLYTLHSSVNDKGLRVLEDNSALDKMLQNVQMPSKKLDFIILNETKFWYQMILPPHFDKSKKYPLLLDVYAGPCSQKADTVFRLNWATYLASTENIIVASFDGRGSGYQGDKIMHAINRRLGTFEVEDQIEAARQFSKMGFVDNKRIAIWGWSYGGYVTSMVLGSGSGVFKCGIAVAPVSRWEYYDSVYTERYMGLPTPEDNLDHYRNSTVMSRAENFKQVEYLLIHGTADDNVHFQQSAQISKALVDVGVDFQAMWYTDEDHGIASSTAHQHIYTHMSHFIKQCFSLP

Molecule: 10 (HGEGTFTSDLSKQMEEEAVRAFIEWLKAGR) [compound 10]
- Δ[Ca^2+]cyt ± SD (n = 4) (clonal B cell line INS-1): 69 ± 30 nM

Molecule: CCCC[C@H](NC(=O)[C@H](CCC(N)=O)NC(=O)[C@H](CCCCN)NC(=O)[C@H](CO)NC(=O)[C@H](CC(C)C)NC(=O)[C@H](CC(=O)O)NC(=O)[C@H](CO)NC(=O)[C@@H](NC(=O)[C@H](Cc1ccccc1)NC(=O)[C@@H](NC(=O)CNC(=O)[C@H](CC(=O)O)NC(=O)[C@H](C)NC(=O)[C@@H](N)Cc1c[nH]cn1)[C@@H](C)O)[C@@H](C)O)C(=O)N[C@@H](CCC(=O)O)C(=O)N[C@@H](CCC(=O)O)C(=O)N[C@@H](CCC(=O)O)C(=O)N[C@@H](C)C(=O)N[C@H](C(=O)N[C@@H](CCCNC(=N)N)C(=O)N[C@@H](CC(C)C)C(=O)N[C@@H](Cc1ccccc1)C(=O)N[C@H](C(=O)N[C@@H](CCC(=O)O)C(=O)N[C@@H](Cc1c[nH]c2ccccc12)C(=O)N[C@@H](CC(C)C)C(=O)N[C@@H](CCCCN)C(=O)N[C@@H](CC(N)=O)C(=O)NCC(=O)N[C@@H](CCCNC(=N)N)C(N)=O)[C@@H](C)CC)C(C)C [compound 78] (H-HADGTFTSDLSKQ[Nle]EEEAVRLFIEWLKNGR-NH2)
- Substrate for DDP-IV [1]: no proteolysis

Molecule: CCCC[C@H](NC(=O)[C@H](CCC(N)=O)NC(=O)[C@H](CCCCN)NC(=O)[C@H](CO)NC(=O)[C@H](CC(C)C)NC(=O)[C@H](CC(=O)O)NC(=O)[C@H](CO)NC(=O)[C@@H](NC(=O)[C@H](Cc1ccccc1)NC(=O)[C@@H](NC(=O)CNC(=O)[C@H](CC(=O)O)NC(=O)[C@H](CCCCN)NC(=O)[C@@H](N)Cc1c[nH]cn1)[C@@H](C)O)[C@@H](C)O)C(=O)N[C@@H](CCC(=O)O)C(=O)N[C@@H](CCC(=O)O)C(=O)N[C@@H](CCC(=O)O)C(=O)N[C@@H](C)C(=O)N[C@H](C(=O)N[C@@H](CCCNC(=N)N)C(=O)N[C@@H](CC(C)C)C(=O)N[C@@H](Cc1ccccc1)C(=O)N[C@H](C(=O)N[C@@H](CCC(=O)O)C(=O)N[C@@H](Cc1c[nH]c2ccccc12)C(=O)N[C@@H](CC(C)C)C(=O)N[C@@H](CCCCN)C(=O)N[C@@H](CC(N)=O)C(=O)NCC(=O)N[C@@H](CCCNC(=N)N)C(N)=O)[C@@H](C)CC)C(C)C [compound 86] (H-HKDGTFTSDLSKQ[Nle]EEEAVRLFIEWLKNGR-NH2)
- Degradation rate [2]: 2.05 ng peptide/min/mg BBM

Molecule: GLP-1-(7-36)-NH2 [GLP1-(7-36)-NH2, reference compound]
- Δ[Ca^2+]cyt ± SD (n = 4) (clonal B cell line INS-1): 65 ± 10 nM
- Insulin release from isolated islets after 1 hour (isolated islet cells; peptide 10^−7, 10 mM glucose): 53.52 mIU/h/10 Islets
- Insulin release from isolated islets after 1 hour (isolated islet cells; peptide 10^−8, 10 mM glucose): 42.78 mIU/h/10 Islets
- Insulin release from isolated islets after 1 hour (isolated islet cells; peptide 10^−9, 10 mM glucose): 29.99 mIU/h/10 Islets

Molecule: [Ala^21, Arg^30]-exendin-4-(1-30)-NH2 [Seq. ID 8]
- Δ[Ca^2+]cyt ± SD (n = 4) (clonal B cell line INS-1): 64 ± 8 nM

Molecule: [H^2 Nle^14R^30]-Ex-3-(1-30)—NH2 (HHDGTFTSDLSKQ[Nle]EEEAVRLFIEWLKNGR-NH2; N-terminus assumed; SMILES CCCC[C@H](NC(=O)[C@H](CCC(N)=O)NC(=O)[C@H](CCCCN)NC(=O)[C@H](CO)NC(=O)[C@H](CC(C)C)NC(=O)[C@H](CC(=O)O)NC(=O)[C@H](CO)NC(=O)[C@@H](NC(=O)[C@H](Cc1ccccc1)NC(=O)[C@@H](NC(=O)CNC(=O)[C@H](CC(=O)O)NC(=O)[C@H](Cc1c[nH]cn1)NC(=O)[C@@H](N)Cc1c[nH]cn1)[C@@H](C)O)[C@@H](C)O)C(=O)N[C@@H](CCC(=O)O)C(=O)N[C@@H](CCC(=O)O)C(=O)N[C@@H](CCC(=O)O)C(=O)N[C@@H](C)C(=O)N[C@H](C(=O)N[C@@H](CCCNC(=N)N)C(=O)N[C@@H](CC(C)C)C(=O)N[C@@H](Cc1ccccc1)C(=O)N[C@H](C(=O)N[C@@H](CCC(=O)O)C(=O)N[C@@H](Cc1c[nH]c2ccccc12)C(=O)N[C@@H](CC(C)C)C(=O)N[C@@H](CCCCN)C(=O)N[C@@H](CC(N)=O)C(=O)NCC(=O)N[C@@H](CCCNC(=N)N)C(N)=O)[C@@H](C)CC)C(C)C) [Seq. ID 84]
- Insulin release from isolated islets after 1 hour (isolated islet cells; peptide 10^−7, 10 mM glucose): 48.94 mIU/h/10 Islets
- Insulin release from isolated islets after 1 hour (isolated islet cells; peptide 10^−8, 10 mM glucose): 41.72 mIU/h/10 Islets
- Insulin release from isolated islets after 1 hour (isolated islet cells; peptide 10^−9, 10 mM glucose): 38.76 mIU/h/10 Islets
- Insulin release from isolated islets after 1 hour (isolated islet cells; peptide 10^−10, 10 mM glucose): 35.05 mIU/h/10 Islets

Molecule: [Nle^14, Arg^30]-exendin-3-(1-30)-NH2 (HSDGTFTSDLSKQ[Nle]EEEAVRLFIEWLKNGR-NH2; N-terminus assumed; SMILES CCCC[C@H](NC(=O)[C@H](CCC(N)=O)NC(=O)[C@H](CCCCN)NC(=O)[C@H](CO)NC(=O)[C@H](CC(C)C)NC(=O)[C@H](CC(=O)O)NC(=O)[C@H](CO)NC(=O)[C@@H](NC(=O)[C@H](Cc1ccccc1)NC(=O)[C@@H](NC(=O)CNC(=O)[C@H](CC(=O)O)NC(=O)[C@H](CO)NC(=O)[C@@H](N)Cc1c[nH]cn1)[C@@H](C)O)[C@@H](C)O)C(=O)N[C@@H](CCC(=O)O)C(=O)N[C@@H](CCC(=O)O)C(=O)N[C@@H](CCC(=O)O)C(=O)N[C@@H](C)C(=O)N[C@H](C(=O)N[C@@H](CCCNC(=N)N)C(=O)N[C@@H](CC(C)C)C(=O)N[C@@H](Cc1ccccc1)C(=O)N[C@H](C(=O)N[C@@H](CCC(=O)O)C(=O)N[C@@H](Cc1c[nH]c2ccccc12)C(=O)N[C@@H](CC(C)C)C(=O)N[C@@H](CCCCN)C(=O)N[C@@H](CC(N)=O)C(=O)NCC(=O)N[C@@H](CCCNC(=N)N)C(N)=O)[C@@H](C)CC)C(C)C) [Seq. ID 5]
- Δ[Ca^2+]cyt ± SD (n = 4) (clonal B cell line INS-1): 63 ± 8 nM
